This note sets out measurements from patent US20200396997A1, “A STABLE AGROCHEMICAL COMPOSITION” (priority 2018, published 2020).

Type in all cases: physicochemical
Data set [1] is described as follows: Comparative study of compositions with end-capped vs non-end capped EO/PO block polymer (7 and 14 days AHS). As to the method: Comparative Study of the Compositions with EO/PO Block Copolymer End-Capped with Methyl Group and Non-End Capped EO/PO Block Polymer
The composition described in Example-1 (having EO/PO block copolymer end-capped with methyl group) prepared according to the process disclosed in the present invention was tested against the composition described in Example-3 (having non-alkyl end-capped EO/PO block copolymer). The objective of study was to determine the effect EO/PO block copolymer end-capped with alkyl group in preventing degradation of active ingredients and to impart overall stability to the composition.

The nature of data set [2]: Stability study of active ingredients in various storage conditions (unpacked / water soluble pouch). To be noted: composition of Example-1; for % Degradation: 14 days AHS at 54° C. vs ambient; for 14 D AHS / AMB: content of active; for 14 D AHS: 14 days AHS at 54° C.; for AMB: ambient. As to the method:
Stability Study of Active Ingredients in Various Storage Conditions
The composition described in Example-1 prepared according to the process disclosed in the present invention was tested to determine the stability of active ingredients when subjected to various storage conditions. Degradation of active ingredients was calculated at ambient conditions and in 14 days AHS at 54° C. for the composition kept as unpacked and as packed in water soluble pouch. Acetamiprid and Acephate both found to be stable in unpacked as well as when packed in the water soluble pouch.

Data set [3] can be described thus: Stability of active ingredients in real time study (19 months ambient). To be noted: composition of Example-2. The source says: Stability of Active Ingredients Observed in Real Time Study
The composition prepared in Example-2 according to the process disclosed in the present invention is kept for real time study to observe degradation pattern of active ingredients. The composition was kept for 19 months in ambient conditions. Acetamiprid and Acephate found to be very stable with 3.5% and 2.31% degradation respectively. This resulted into an overall stable agrochemical composition.

The nature of data set [4]: Study of chloronicotinyl compositions with and without EO/PO block copolymer end-capped with methyl group (7 and 14 days AHS). As to the method:
Study of Chloronicotinyl Compositions Having EO/PO Block Copolymer End-Capped with Methyl Group and without Having EO/PO Block Polymer End-Capped with Methyl Group
The composition described in Example-4 (having EO/PO block copolymer end-capped with methyl group) prepared according to the process disclosed in the present invention was tested against the composition described in Example-7 (having no EO/PO block copolymer). The objective of study was to determine the effect of EO/PO block copolymer end-capped with alkyl group on chloronicotinyl compounds in preventing degradation of the compositions as well as the overall stability to the compositions.

Setting [5] is: 19 months in ambient conditions.

With `COP(=O)(NC(C)=O)SC` (centres unmarked) [Acephate, N-(Methoxy-methylsulfanylphosphoryl) acetamide], the Degradation observed in data set [1] (7 days AHS, active in composition comprising EO/PO block copolymer end-capped with methyl group (Example-1)) was found to be 0.64%; in data set [1] (7 days AHS, active in composition comprising non end-capped EO/PO block copolymer (Example-3)), 1.5%; in data set [1] (14 days AHS, active in composition comprising EO/PO block copolymer end-capped with methyl group (Example-1)) it was 1.02%; in data set [1] (14 days AHS, active in composition comprising non end-capped EO/PO block copolymer (Example-3)), 1.92%. The results for the “% Degradation” value in data set [2] (Packed in Water Soluble Pouch) and in data set [2] (Without Packing) were 1.29% and 0.75%, respectively. Besides, the “stability of active (in words)” value is on record as “stable” in data set [2] (unpacked as well as packed in the water soluble pouch) and “very stable” in data set [3] (setting [5]). The “14 D AHS” value turned out to be 87.13 in data set [2] (Packed in Water Soluble Pouch) and 87.81 in data set [2] (Without Packing). Moreover, the AMB in data set [2] (Packed in Water Soluble Pouch) and in data set [2] (Without Packing) was 88.59 throughout. For the same compound, the degradation in data set [3] (19 Month Real Time) was found to be 3.50; in data set [3] (setting [5]), 2.31%. Moreover, in data set [3] (content of active, 19 months in ambient conditions), the “19 Month Real Time” value was 85.03. In addition, the Ambient in data set [3] (content of active, start) was 88.11.

Turning to `N#C/N=C1\SCCN1Cc1ccc(Cl)nc1` [Thiacloprid], the Degradation observed in data set [4] (7 days AHS, active in composition comprising EO/PO block copolymer end-capped with methyl group (Example-4)) was 0.58%; in data set [4] (7 days AHS, active in composition prepared without using end-capped EO/PO block copolymer (Example-7)) it was 5.1%; in data set [4] (14 days AHS, active in composition comprising EO/PO block copolymer end-capped with methyl group (Example-4)) it was 0.93%; in data set [4] (14 days AHS, active in composition prepared without using end-capped EO/PO block copolymer (Example-7)), 7.91%.
